In ChEMBL document CHEMBL5338742, “Neurotherapeutic Potential of Water-Soluble pH-Responsive Prodrugs of EIDD-036 in Traumatic Brain Injury” (J Med Chem, 2023):

Columns and labels:
[1] = Aqueous solubility of compound; type: physicochemical; details: buffer
[2] = Stability of the compound in PBS buffer at pH 7.2 assessed as half life at 25 degreeC by HPLC analysis; type: physicochemical
[3] = Stability in human plasma assessed as half life at 37 degreeC by LC-MS/MS analysis; type: ADME, cell-free
[4] = Stability of the compound in PBS buffer at pH 7.2 assessed as half life in the presence of MeCN by HPLC analysis; type: physicochemical
[5] = AUC (0-last) in Sprague-Dawley rat at 2 mg/kg,iv measured for 0.08 to 10 hrs by LC-MS/MS analysis; type: ADME, organism-based; parameters: dose 2 mg/kg, time 0.08-10 hrs, route iv; details: in vivo
[6] = Stability of the compound at pH 5; type: physicochemical; details: buffer
[7] = Stability of the compound in 1 M NaCl; type: physicochemical
[8] = Stability of the compound in PBS buffer at 4 degreeC; type: physicochemical
[9] = Stability of the compound in PBS buffer at pH 7.2 assessed as half life at 37 degreeC by LC-MS/MS analysis; type: physicochemical
Rattus norvegicus = assay: Neuroprotective activity against Sprague-Dawley rat model of traumatic brain injury assessed as reduction in cerebral edema at 10 mg/kg, IM administered for 1 to 6 hrs measured after 24 hrs relative to control; type: functional; parameters: scale not given: the % may be the effect or the level left; details: time 25-30 hrs
[10] = Cmax in Sprague-Dawley rat assessed as cmax of parent compound at 10 mg/kg,IM measured for 0.25 to 10 hrs by LC-MS/MS analysis; type: ADME, organism-based; parameters: time upper 10 hrs, time lower 0.25 hrs, dose 10 mg/kg, route im; details: in vivo
[11] = AUC (0-last) in Sprague-Dawley rat assessed as AUC (0-last) of parent compound at 2 mg/kg,iv measured for 0.08 to 10 hrs by LC-MS/MS analysis; type: ADME, organism-based; parameters: dose 2 mg/kg, time upper 10 hrs, time lower 0.08 hrs, route iv; details: in vivo
[12] = AUC (0-last) in Sprague-Dawley rat assessed as AUC (0-last) of parent compound at 10 mg/kg,IM measured for 0.25 to 10 hrs by LC-MS/MS analysis; type: ADME, organism-based; parameters: time 0.25-10 hrs, dose 10 mg/kg, route im; details: in vivo
[13] = Solubility of compound in normal saline; type: physicochemical
[14] = Stability of the compound at pH 3; type: physicochemical; details: buffer
[15] = Stability of the compound in PBS buffer at 37 degreeC; type: physicochemical
[16] = Cmax in Sprague-Dawley rat assessed as cmax of parent compound at 2 mg/kg,iv measured for 0.08 to 10 hrs by LC-MS/MS analysis; type: ADME, organism-based; parameters: dose 2 mg/kg, time 0.08-10 hrs, route iv; details: in vivo
[17] = Stability of the compound in 0.15 M NaCl; type: physicochemical
[18] = Cmax in Sprague-Dawley rat at 2 mg/kg,iv measured for 0.08 to 10 hrs by LC-MS/MS analysis; type: ADME, organism-based; parameters: dose 2 mg/kg, time 0.08-10 hrs, route iv; details: in vivo
[19] = AUC (0-last) in Sprague-Dawley rat at 10 mg/kg, IM measured for 0.25 to 10 hrs by LC-MS/MS analysis; type: ADME, organism-based; parameters: time upper 10 hrs, dose 10 mg/kg, time lower 0.25 hrs, route im; details: in vivo
[20] = Stability of the compound in 0.1 M HCl; type: physicochemical
[21] = Cmax in Sprague-Dawley rat at 10 mg/kg,im measured for 0.25 to 10 hrs by LC-MS/MS analysis; type: ADME, organism-based; parameters: time lower 0.25 hrs, dose 10 mg/kg, time upper 10 hrs, route im; details: in vivo
HepG2 = assay: Cytotoxicity against human HepG2 cells assessed as maximum cytolysis at 100 uM by Maestro Z Impedance Assay relative to control; type: toxicity, cell-based; details: hepg2, 100 µM
[22] = Cytotoxicity against human HepG2 cells by Maestro Z Impedance Assay; type: toxicity, cell-based

For `C/C(=N\OC(=O)[C@@H](N)C(C)C)[C@H]1CC[C@H]2[C@@H]3CCC4=CC(=O)CC[C@]4(C)[C@H]3CC[C@]12C.Cl`, which solubility [1] is on record?
The solubility was 146 µM.

What about the half-life [2] of the same compound?
The half-life was 660 min.

For `C/C(=N\OC(=O)N(C)CCNCCOC(F)(F)F)[C@H]1CC[C@H]2[C@@H]3CCC4=CC(=O)CC[C@]4(C)[C@H]3CC[C@]12C.Cl`, which half-life [3] is on record?
Its half-life is 102 min.

What about the solubility [1] of the same compound?
The solubility was less than 1 mg/mL.

What about the half-life [4] of the same compound?
Its half-life is 1710 min.

For `C/C(=N\OC(=O)N(C)C[C@@H]1CCCN1)[C@H]1CC[C@H]2[C@@H]3CCC4=CC(=O)CC[C@]4(C)[C@H]3CC[C@]12C.Cl`, which AUC(0-t) [5] is on record?
The AUC(0-t) was 62.9 ng·h/mL.

And the half-life [6]?
Its half-life is 7.3 days.

What about the half-life [7] of the same compound?
Its half-life is 7 days.

And the half-life [8]?
The half-life was 3.1 days.

What about the half-life [9] of the same compound?
The half-life was 114 min.

And the Activity (Rattus norvegicus)?
The Activity was 40%.

What about the Cmax [10] of the same compound?
The Cmax was 954 ng/mL.

What about the AUClast [11] of the same compound?
The AUClast was 176 ng·h/mL.

And the AUClast [12]?
Its AUClast is 1304 ng·h/mL.

And the solubility [13]?
Its solubility is greater than 50 mg/mL.

What about the half-life [14] of the same compound?
The half-life was 8 days.

And the half-life [15]?
Its half-life is 60 min.

What about the Cmax [16] of the same compound?
The Cmax was 328 ng/mL.

What about the half-life [17] of the same compound?
The half-life was greater than 10 days.

And the Cmax [18]?
Its Cmax is 122 ng/mL.

What about the AUC(0-t) [19] of the same compound?
Its AUC(0-t) is 288 ng·h/mL.

What about the half-life [2] of the same compound?
Its half-life is 114 min.

What about the half-life [20] of the same compound?
The half-life was 78 min.

What about the Cmax [21] of the same compound?
The Cmax was 224 ng/mL.

For `C/C(=N\OC(=O)OCCN)[C@H]1CC[C@H]2[C@@H]3CCC4=CC(=O)CC[C@]4(C)[C@H]3CC[C@]12C.Cl`, which half-life [2] is on record?
Its half-life is 6.6 min.

Which results are given for `CNCCN(C)C(=O)O/N=C(\C)[C@H]1CC[C@H]2[C@@H]3CCC4=CC(=O)CC[C@]4(C)[C@H]3CC[C@]12C.Cl`?
half-life [3]: 162 min; half-life [2]: 2810 min

With `CNCCN(CCO)C(=O)O/N=C(\C)[C@H]1CC[C@H]2[C@@H]3CCC4=CC(=O)CC[C@]4(C)[C@H]3CC[C@]12C.Cl` as the compound, how does the half-life [3] read?
The half-life was 96 min.

And the half-life [2]?
The half-life was 1490 min.

Which results are given for `CNC[C@@H]1CCCN1C(=O)O/N=C(\C)[C@H]1CC[C@H]2[C@@H]3CCC4=CC(=O)CC[C@]4(C)[C@H]3CC[C@]12C.Cl`?
half-life [3]: > 240 min; half-life [2]: > 14400 min

With `C/C(=N\OC(=O)N(C)C[C@@H]1CCCN1C)[C@H]1CC[C@H]2[C@@H]3CCC4=CC(=O)CC[C@]4(C)[C@H]3CC[C@]12C.Cl` as the compound, how does the half-life [3] read?
Its half-life is 54 min.

What about the half-life [9] of the same compound?
Its half-life is greater than 120 min.

For `C/C(=N\OC(=O)N(C)CCNCCO)[C@H]1CC[C@H]2[C@@H]3CCC4=CC(=O)CC[C@]4(C)[C@H]3CC[C@]12C.Cl`, which half-life [3] is on record?
Its half-life is 168 min.

What about the half-life [2] of the same compound?
The half-life was 1820 min.

For `C/C(=N\OC(=O)OC[C@@H]1CCCN1)[C@H]1CC[C@H]2[C@@H]3CCC4=CC(=O)CC[C@]4(C)[C@H]3CC[C@]12C.Cl`, which half-life [2] is on record?
The half-life was 5.4 min.

Which results are given for `CN1C[C@@H]2CCCN2C1=O`?
Activity (HepG2): 30%; CC50 [22]: > 100 µM

For `CNCCCN(C)C(=O)O/N=C(\C)[C@H]1CC[C@H]2[C@@H]3CCC4=CC(=O)CC[C@]4(C)[C@H]3CC[C@]12C.Cl`, which half-life [3] is on record?
The half-life was greater than 240 min.

What about the half-life [2] of the same compound?
Its half-life is greater than 14400 min.

Which results are given for `C/C(=N\OC(=O)NCCN)[C@H]1CC[C@H]2[C@@H]3CCC4=CC(=O)CC[C@]4(C)[C@H]3CC[C@]12C.Cl`?
half-life [3]: > 120 min; half-life [2]: > 14400 min

Which results are given for `C/C(=N\OC(=O)OCCN(C)C)[C@H]1CC[C@H]2[C@@H]3CCC4=CC(=O)CC[C@]4(C)[C@H]3CC[C@]12C.Cl`?
half-life [3]: 432 min; half-life [2]: 210 min

For `C/C(=N\OC(=O)N1CCC[C@H]1CN)[C@H]1CC[C@H]2[C@@H]3CCC4=CC(=O)CC[C@]4(C)[C@H]3CC[C@]12C.Cl`, which half-life [3] is on record?
Its half-life is greater than 240 min.

What about the half-life [2] of the same compound?
Its half-life is greater than 14400 min.

Which half-life [3] does the source give for `C/C(=N\OC(=O)N(C)CCNCCF)[C@H]1CC[C@H]2[C@@H]3CCC4=CC(=O)CC[C@]4(C)[C@H]3CC[C@]12C.Cl` here?
Its half-life is 132 min.

And the half-life [2]?
The half-life was 2170 min.

What does the source list for `C/C(=N\OC(=O)NC[C@@H]1CCCN1)[C@H]1CC[C@H]2[C@@H]3CCC4=CC(=O)CC[C@]4(C)[C@H]3CC[C@]12C.Cl`?
half-life [3]: > 240 min; half-life [2]: > 14400 min

With `C/C(=N\OC(=O)N(C)C[C@@H]1CCCCN1)[C@H]1CC[C@H]2[C@@H]3CCC4=CC(=O)CC[C@]4(C)[C@H]3CC[C@]12C.Cl` as the compound, how does the half-life [2] read?
Its half-life is greater than 14400 min.

What does the source list for `C/C(=N\OCOP(=O)([O-])[O-])[C@H]1CC[C@H]2[C@@H]3CCC4=CC(=O)CC[C@]4(C)[C@H]3CC[C@]12C.[Na+].[Na+]`?
AUC(0-t) [5]: 22 ng·h/mL; Cmax [10]: 425 ng/mL; AUClast [11]: 48 ng·h/mL; AUClast [12]: 753 ng·h/mL; solubility [1]: > 150 mg/mL; Cmax [16]: 219 ng/mL; Cmax [18]: 182 ng/mL; AUC(0-t) [19]: 724 ng·h/mL; Cmax [21]: 1360 ng/mL

What does the source list for `C/C(=N\OC(=O)NCCN(C)C)[C@H]1CC[C@H]2[C@@H]3CCC4=CC(=O)CC[C@]4(C)[C@H]3CC[C@]12C.Cl`?
half-life [3]: > 210 min; half-life [2]: > 14400 min

With `C/C(=N\OC(=O)NC[C@@H]1CCCCN1)[C@H]1CC[C@H]2[C@@H]3CCC4=CC(=O)CC[C@]4(C)[C@H]3CC[C@]12C.Cl` as the compound, how does the half-life [2] read?
The half-life was greater than 14400 min.

With `CNCC(C)(C)CN(C)C(=O)O/N=C(\C)[C@H]1CC[C@H]2[C@@H]3CCC4=CC(=O)CC[C@]4(C)[C@H]3CC[C@]12C.Cl` as the compound, how does the half-life [3] read?
The half-life was greater than 240 min.

What about the half-life [2] of the same compound?
Its half-life is greater than 14400 min.

What does the source list for `CC(=O)[C@H]1CC[C@H]2[C@@H]3CCC4=C/C(=N/OC(=O)[C@@H](N)C(C)C)CC[C@]4(C)[C@H]3CC[C@]12C.Cl`?
solubility [1]: 172 µM; half-life [2]: 600 min
